Laboratory results published in PubChem BioAssay AID1259407 (Chemical Carcinogenesis Research Information System (CCRIS), 2018).
Activity calls are given as the source filed them. No rule for the calls is given here.

Test system: CCRIS mutagenicity, Ames/micronucleus/aberration tests
Test: CCRIS mutagenicity studies

Compound: COC(=O)Nc1nc2ccccc2[nH]1
- mutagenic call (Test System: AMES SALMONELLA TYPHIMURIUM, Strain/Indicator: TA100, Metabolic Activation: RAT, LIVER, S-9, PHENOBARBITAL AND BETA-NAPHTHOFLAVONE, Method: STANDARD PLATE): inactive; negative
- mutagenic call (Test System: AMES SALMONELLA TYPHIMURIUM, Strain/Indicator: TA100, Metabolic Activation: RAT, LIVER, S-9, PHENOBARBITONE, Method: PREINCUBATION): inactive; negative
- mutagenic call (Test System: AMES SALMONELLA TYPHIMURIUM, Strain/Indicator: TA100, Metabolic Activation: S-9, Method: STANDARD PLATE): inactive; negative
- mutagenic call (Test System: AMES SALMONELLA TYPHIMURIUM, Strain/Indicator: TA102, Metabolic Activation: NONE, Method: PREINCUBATION): inactive; negative
- mutagenic call (Test System: AMES SALMONELLA TYPHIMURIUM, Strain/Indicator: TA102, Metabolic Activation: NONE, Method: STANDARD PLATE): inactive; negative
- mutagenic call (Test System: AMES SALMONELLA TYPHIMURIUM, Strain/Indicator: TA102, Metabolic Activation: RAT, LIVER, S-9, PHENOBARBITAL AND BETA-NAPHTHOFLAVONE, Method: PREINCUBATION): inactive; negative
- mutagenic call (Test System: AMES SALMONELLA TYPHIMURIUM, Strain/Indicator: TA102, Metabolic Activation: RAT, LIVER, S-9, PHENOBARBITAL AND BETA-NAPHTHOFLAVONE, Method: STANDARD PLATE): inactive; negative
- mutagenic call (Test System: AMES SALMONELLA TYPHIMURIUM, Strain/Indicator: TA1535, Metabolic Activation: HAMSTER, LIVER, S-9, AROCLOR 1254 (10%), Method: PREINCUBATION): inactive; negative
- mutagenic call (Test System: AMES SALMONELLA TYPHIMURIUM, Strain/Indicator: TA1535, Metabolic Activation: NONE, Method: PREINCUBATION): inactive; negative
- mutagenic call (Test System: AMES SALMONELLA TYPHIMURIUM, Strain/Indicator: TA1535, Metabolic Activation: PLANT, HOMOGENATE, S-14, Method: STANDARD PLATE): inactive; negative
- mutagenic call (Test System: AMES SALMONELLA TYPHIMURIUM, Strain/Indicator: TA1535, Metabolic Activation: RAT, LIVER, S-9, AROCLOR 1254 (10%), Method: PREINCUBATION): inactive; negative
- mutagenic call (Test System: AMES SALMONELLA TYPHIMURIUM, Strain/Indicator: TA1535, Metabolic Activation: RAT, LIVER, S-9, AROCLOR 1254, Method: STANDARD PLATE): inactive; negative
- mutagenic call (Test System: AMES SALMONELLA TYPHIMURIUM, Strain/Indicator: TA1535, Metabolic Activation: RAT, LIVER, S-9, PHENOBARBITAL AND BETA-NAPHTHOFLAVONE, Method: PREINCUBATION): inactive; negative
- mutagenic call (Test System: AMES SALMONELLA TYPHIMURIUM, Strain/Indicator: TA1535, Metabolic Activation: RAT, LIVER, S-9, PHENOBARBITAL AND BETA-NAPHTHOFLAVONE, Method: STANDARD PLATE): inactive; negative
- mutagenic call (Test System: AMES SALMONELLA TYPHIMURIUM, Strain/Indicator: TA1535, Metabolic Activation: S-9, Method: STANDARD PLATE): inactive; negative
- mutagenic call (Test System: AMES SALMONELLA TYPHIMURIUM, Strain/Indicator: TA1537, Metabolic Activation: HAMSTER, LIVER, S-9, AROCLOR 1254 (10%), Method: PREINCUBATION): active; positive
- mutagenic call (Test System: AMES SALMONELLA TYPHIMURIUM, Strain/Indicator: TA1537, Metabolic Activation: NONE, Method: PREINCUBATION): inactive; negative
- mutagenic call (Test System: AMES SALMONELLA TYPHIMURIUM, Strain/Indicator: TA1537, Metabolic Activation: RAT, LIVER, S-9, AROCLOR 1254 (10%), Method: PREINCUBATION): active; positive
- mutagenic call (Test System: AMES SALMONELLA TYPHIMURIUM, Strain/Indicator: TA1537, Metabolic Activation: RAT, LIVER, S-9, AROCLOR 1254, Method: STANDARD PLATE): inactive; negative
- mutagenic call (Test System: AMES SALMONELLA TYPHIMURIUM, Strain/Indicator: TA1537, Metabolic Activation: RAT, LIVER, S-9, PHENOBARBITAL AND BETA-NAPHTHOFLAVONE, Method: PREINCUBATION): active; positive
- mutagenic call (Test System: AMES SALMONELLA TYPHIMURIUM, Strain/Indicator: TA1537, Metabolic Activation: RAT, LIVER, S-9, PHENOBARBITAL AND BETA-NAPHTHOFLAVONE, Method: STANDARD PLATE): inactive; negative
- mutagenic call (Test System: AMES SALMONELLA TYPHIMURIUM, Strain/Indicator: TA1538, Metabolic Activation: NONE, Method: PREINCUBATION): inactive; negative
- mutagenic call (Test System: AMES SALMONELLA TYPHIMURIUM, Strain/Indicator: TA1538, Metabolic Activation: NONE, Method: STANDARD PLATE): inactive; negative
- mutagenic call (Test System: AMES SALMONELLA TYPHIMURIUM, Strain/Indicator: TA1538, Metabolic Activation: RAT, LIVER, S-9, AROCLOR 1254, Method: STANDARD PLATE): inactive; negative
- mutagenic call (Test System: AMES SALMONELLA TYPHIMURIUM, Strain/Indicator: TA1538, Metabolic Activation: RAT, LIVER, S-9, PHENOBARBITAL AND BETA-NAPHTHOFLAVONE, Method: PREINCUBATION): active; positive
- mutagenic call (Test System: AMES SALMONELLA TYPHIMURIUM, Strain/Indicator: TA1538, Metabolic Activation: RAT, LIVER, S-9, PHENOBARBITAL AND BETA-NAPHTHOFLAVONE, Method: STANDARD PLATE): active; positive
- mutagenic call (Test System: Mouse lymphoma, Strain/Indicator: L5178Y (tk+/tk-)/Trifluorothymidine, Metabolic Activation: None, Method: Microtiter): active; positive
